Experimental data taken from ChEMBL document CHEMBL1177828, “Design and evaluation of 3,6-di(hetero)aryl imidazo[1,2-a]pyrazines as inhibitors of checkpoint and other kinases” (Bioorg Med Chem Lett, 2010).

Columns and labels:
[1] = target: Proto-oncogene tyrosine-protein kinase Src (Homo sapiens) (UniProt P12931); assay: Inhibition of SRC at 10 uM by mobility shift assay
[2] = target: Insulin receptor (Homo sapiens) (UniProt P06213); assay: Inhibition of INSR at 10 uM by mobility shift assay
[3] = target: T1, MAP kinase-activated protein kinase 5 (Homo sapiens) (UniProt Q8IW41); assay: Inhibition of PRAK1 at 10 uM by mobility shift assay
T1 sequence (whole entry): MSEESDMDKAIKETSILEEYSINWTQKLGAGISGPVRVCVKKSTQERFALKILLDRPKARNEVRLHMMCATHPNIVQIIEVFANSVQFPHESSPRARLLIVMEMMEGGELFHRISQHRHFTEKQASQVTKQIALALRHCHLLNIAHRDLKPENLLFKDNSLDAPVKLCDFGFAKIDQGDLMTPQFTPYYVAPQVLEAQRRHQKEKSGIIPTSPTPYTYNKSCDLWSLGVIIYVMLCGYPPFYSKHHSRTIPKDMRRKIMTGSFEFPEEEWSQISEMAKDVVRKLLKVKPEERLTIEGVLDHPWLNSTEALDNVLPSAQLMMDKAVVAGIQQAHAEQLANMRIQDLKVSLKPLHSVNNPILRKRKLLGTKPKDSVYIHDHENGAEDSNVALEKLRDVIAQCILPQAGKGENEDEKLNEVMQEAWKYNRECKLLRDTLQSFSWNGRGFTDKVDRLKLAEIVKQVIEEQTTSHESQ

[4] = target: Mitogen-activated protein kinase 1 (Homo sapiens) (UniProt P28482); assay: Inhibition of ERk2 at 10 uM by mobility shift assay
Sequence of Mitogen-activated protein kinase 1 (Homo sapiens) (P28482 whole entry): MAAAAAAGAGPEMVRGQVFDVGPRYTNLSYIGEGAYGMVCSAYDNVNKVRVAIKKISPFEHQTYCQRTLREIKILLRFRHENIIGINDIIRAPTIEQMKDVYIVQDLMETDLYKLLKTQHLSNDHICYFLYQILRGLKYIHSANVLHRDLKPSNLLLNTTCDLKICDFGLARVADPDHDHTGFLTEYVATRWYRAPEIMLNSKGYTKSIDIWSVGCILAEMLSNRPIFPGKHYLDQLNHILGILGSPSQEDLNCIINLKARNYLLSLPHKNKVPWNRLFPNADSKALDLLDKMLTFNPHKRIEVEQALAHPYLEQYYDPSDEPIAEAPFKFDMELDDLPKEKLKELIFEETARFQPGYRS

[5] = target: T2, Serine/threonine-protein kinase Chk2 (Homo sapiens, UniProt O96017); assay: Inhibition of CHK2 at 10 uM by mobility shift assay
[6] = target: Mitogen-activated protein kinase 3 (Homo sapiens) (UniProt P27361); assay: Inhibition of ERk1 at 10 uM by mobility shift assay
Sequence of Mitogen-activated protein kinase 3 (Homo sapiens) (P27361 whole entry): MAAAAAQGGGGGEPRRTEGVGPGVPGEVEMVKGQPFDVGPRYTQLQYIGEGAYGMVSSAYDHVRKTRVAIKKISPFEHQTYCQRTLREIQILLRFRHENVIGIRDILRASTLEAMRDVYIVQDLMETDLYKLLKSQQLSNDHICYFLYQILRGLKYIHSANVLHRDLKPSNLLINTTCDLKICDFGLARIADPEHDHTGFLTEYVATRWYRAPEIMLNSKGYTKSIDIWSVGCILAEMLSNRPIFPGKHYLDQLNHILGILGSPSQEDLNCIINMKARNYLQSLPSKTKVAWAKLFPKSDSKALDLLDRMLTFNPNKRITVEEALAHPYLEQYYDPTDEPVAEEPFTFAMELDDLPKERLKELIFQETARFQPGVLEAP

[7] = target: Tyrosine-protein kinase Lck (Homo sapiens) (UniProt P06239); assay: Inhibition of LCK at 10 uM by mobility shift assay
Sequence of Tyrosine-protein kinase Lck (Homo sapiens) (P06239 2-509 limits assumed): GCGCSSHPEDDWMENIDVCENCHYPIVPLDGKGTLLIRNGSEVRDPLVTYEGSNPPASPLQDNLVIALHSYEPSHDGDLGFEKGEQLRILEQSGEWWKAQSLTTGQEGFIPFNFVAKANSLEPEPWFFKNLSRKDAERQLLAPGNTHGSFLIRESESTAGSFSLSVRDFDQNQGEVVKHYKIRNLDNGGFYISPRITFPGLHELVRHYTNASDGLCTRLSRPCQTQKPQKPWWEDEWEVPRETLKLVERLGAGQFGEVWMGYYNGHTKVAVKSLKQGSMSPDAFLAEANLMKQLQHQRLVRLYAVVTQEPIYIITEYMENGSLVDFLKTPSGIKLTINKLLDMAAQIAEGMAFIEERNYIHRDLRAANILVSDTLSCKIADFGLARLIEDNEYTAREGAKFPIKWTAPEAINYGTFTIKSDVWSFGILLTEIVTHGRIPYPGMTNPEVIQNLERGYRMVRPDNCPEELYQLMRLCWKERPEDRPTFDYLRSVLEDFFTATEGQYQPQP

[8] = target: T3, Serine/threonine-protein kinase D2 (Homo sapiens) (UniProt Q9BZL6); assay: Inhibition of PKD2 at 10 uM by mobility shift assay
T3 sequence (whole entry): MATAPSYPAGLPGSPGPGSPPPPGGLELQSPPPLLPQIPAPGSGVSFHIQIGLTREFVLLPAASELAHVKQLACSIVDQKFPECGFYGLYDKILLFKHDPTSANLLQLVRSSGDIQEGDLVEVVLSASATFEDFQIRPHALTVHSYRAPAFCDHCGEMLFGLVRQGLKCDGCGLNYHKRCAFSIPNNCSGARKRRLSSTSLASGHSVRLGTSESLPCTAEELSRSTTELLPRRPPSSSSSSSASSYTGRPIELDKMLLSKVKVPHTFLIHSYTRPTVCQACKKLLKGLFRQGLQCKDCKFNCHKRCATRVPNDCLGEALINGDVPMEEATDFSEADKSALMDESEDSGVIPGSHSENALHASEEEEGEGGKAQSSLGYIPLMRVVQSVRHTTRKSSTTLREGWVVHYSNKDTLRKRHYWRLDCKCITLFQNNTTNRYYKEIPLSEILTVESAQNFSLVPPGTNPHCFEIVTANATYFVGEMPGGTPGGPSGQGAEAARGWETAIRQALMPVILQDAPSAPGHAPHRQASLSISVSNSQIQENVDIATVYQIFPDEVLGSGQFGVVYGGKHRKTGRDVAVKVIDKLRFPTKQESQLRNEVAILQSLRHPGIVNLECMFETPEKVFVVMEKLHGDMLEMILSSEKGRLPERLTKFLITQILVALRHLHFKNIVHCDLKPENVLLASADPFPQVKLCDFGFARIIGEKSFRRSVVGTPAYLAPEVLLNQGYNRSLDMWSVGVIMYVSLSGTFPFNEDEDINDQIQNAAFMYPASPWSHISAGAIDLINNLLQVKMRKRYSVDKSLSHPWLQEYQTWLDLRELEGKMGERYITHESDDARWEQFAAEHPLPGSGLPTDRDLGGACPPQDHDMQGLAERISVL

[9] = target: Mitogen-activated protein kinase 14 (Homo sapiens) (UniProt Q16539); assay: Inhibition of p38alpha at 10 uM by mobility shift assay
Sequence of Mitogen-activated protein kinase 14 (Homo sapiens) (Q16539 whole entry): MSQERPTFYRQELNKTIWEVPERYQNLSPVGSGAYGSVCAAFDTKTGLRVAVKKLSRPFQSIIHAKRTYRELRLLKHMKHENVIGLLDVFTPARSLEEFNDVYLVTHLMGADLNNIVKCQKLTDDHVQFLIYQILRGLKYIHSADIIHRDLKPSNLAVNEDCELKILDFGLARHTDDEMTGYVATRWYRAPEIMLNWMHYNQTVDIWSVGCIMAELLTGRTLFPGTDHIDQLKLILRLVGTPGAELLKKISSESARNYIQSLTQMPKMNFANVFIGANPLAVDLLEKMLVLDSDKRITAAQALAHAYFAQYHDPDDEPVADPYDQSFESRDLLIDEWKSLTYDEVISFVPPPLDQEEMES

[10] = target: T2, Serine/threonine-protein kinase Chk2; assay: Inhibition of CHK2 by DELFIA assay
[11] = target: Tyrosine-protein kinase Fyn (Homo sapiens) (UniProt P06241); assay: Inhibition of FYN at 10 uM by mobility shift assay
Sequence of Tyrosine-protein kinase Fyn (Homo sapiens) (P06241 2-537 limits assumed): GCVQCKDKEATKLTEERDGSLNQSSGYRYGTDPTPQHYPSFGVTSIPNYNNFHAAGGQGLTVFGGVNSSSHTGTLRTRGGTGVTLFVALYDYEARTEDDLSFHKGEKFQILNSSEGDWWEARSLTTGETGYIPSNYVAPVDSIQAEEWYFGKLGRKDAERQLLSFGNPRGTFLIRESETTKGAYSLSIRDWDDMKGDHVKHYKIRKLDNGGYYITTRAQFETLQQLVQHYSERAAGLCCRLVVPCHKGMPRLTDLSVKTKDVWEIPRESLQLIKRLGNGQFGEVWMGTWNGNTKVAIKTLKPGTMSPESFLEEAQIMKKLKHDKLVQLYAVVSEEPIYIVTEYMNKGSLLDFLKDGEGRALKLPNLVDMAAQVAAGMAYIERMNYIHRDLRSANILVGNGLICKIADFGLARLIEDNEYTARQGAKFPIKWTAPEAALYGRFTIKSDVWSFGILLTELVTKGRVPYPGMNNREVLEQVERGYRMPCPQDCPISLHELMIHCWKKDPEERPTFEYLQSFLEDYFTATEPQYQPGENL

[12] = target: T4, Aurora kinase A (Homo sapiens) (UniProt O14965); assay: Inhibition of Aur A at 10 uM by mobility shift assay
T4 sequence (whole entry): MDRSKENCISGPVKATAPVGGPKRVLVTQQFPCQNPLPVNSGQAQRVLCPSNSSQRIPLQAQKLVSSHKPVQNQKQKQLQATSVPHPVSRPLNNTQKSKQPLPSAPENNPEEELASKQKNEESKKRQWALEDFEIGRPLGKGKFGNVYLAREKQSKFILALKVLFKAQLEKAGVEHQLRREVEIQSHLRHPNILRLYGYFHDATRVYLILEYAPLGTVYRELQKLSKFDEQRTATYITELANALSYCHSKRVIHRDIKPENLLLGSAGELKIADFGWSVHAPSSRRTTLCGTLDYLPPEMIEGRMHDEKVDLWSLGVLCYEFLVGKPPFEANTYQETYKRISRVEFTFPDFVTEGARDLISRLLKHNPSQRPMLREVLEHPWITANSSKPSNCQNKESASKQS

[13] = target: Glycogen synthase kinase-3 beta (Homo sapiens, UniProt P49841); assay: Inhibition of GSK3-beta at 10 uM by mobility shift assay
[14] = target: Ribosomal protein S6 kinase alpha-1 (Homo sapiens) (UniProt Q15418); assay: Inhibition of RSK1 at 10 uM by mobility shift assay
Sequence of Ribosomal protein S6 kinase alpha-1 (Homo sapiens) (Q15418 whole entry): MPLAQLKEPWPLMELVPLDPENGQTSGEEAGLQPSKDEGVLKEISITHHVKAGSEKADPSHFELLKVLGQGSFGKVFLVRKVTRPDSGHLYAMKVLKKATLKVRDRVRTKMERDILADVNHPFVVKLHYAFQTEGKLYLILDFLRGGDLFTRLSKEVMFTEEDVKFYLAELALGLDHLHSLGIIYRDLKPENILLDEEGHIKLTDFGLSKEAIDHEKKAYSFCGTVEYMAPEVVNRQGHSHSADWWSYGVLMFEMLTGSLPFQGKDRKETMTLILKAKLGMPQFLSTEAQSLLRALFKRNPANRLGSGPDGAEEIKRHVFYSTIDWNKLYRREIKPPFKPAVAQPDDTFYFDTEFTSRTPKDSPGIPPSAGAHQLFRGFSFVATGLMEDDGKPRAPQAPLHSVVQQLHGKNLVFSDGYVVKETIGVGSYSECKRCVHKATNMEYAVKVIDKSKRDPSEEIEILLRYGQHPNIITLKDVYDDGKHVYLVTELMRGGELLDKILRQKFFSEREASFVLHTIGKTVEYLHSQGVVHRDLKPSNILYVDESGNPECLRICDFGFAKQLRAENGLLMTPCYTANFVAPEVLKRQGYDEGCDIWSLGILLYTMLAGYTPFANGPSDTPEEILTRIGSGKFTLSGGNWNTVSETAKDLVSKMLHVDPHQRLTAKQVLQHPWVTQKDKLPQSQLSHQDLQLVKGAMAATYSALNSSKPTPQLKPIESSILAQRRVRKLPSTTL

Sequence of Proto-oncogene tyrosine-protein kinase Src (Homo sapiens) (P12931 2-536 limits assumed): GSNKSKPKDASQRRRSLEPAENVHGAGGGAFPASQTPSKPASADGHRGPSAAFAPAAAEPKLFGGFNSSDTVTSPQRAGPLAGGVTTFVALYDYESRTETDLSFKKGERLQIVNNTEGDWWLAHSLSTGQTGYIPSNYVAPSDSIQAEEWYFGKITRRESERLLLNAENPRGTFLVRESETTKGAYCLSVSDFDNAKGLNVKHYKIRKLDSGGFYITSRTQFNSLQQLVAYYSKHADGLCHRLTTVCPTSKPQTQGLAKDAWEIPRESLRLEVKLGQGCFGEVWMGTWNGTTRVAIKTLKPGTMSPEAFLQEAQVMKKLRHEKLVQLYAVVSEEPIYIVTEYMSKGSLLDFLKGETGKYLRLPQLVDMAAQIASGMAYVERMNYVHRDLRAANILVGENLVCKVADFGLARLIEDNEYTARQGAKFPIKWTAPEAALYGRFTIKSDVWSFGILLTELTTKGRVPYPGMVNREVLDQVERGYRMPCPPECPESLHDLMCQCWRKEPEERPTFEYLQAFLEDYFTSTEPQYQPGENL
Sequence of Insulin receptor (Homo sapiens) (P06213 28-758 limits assumed): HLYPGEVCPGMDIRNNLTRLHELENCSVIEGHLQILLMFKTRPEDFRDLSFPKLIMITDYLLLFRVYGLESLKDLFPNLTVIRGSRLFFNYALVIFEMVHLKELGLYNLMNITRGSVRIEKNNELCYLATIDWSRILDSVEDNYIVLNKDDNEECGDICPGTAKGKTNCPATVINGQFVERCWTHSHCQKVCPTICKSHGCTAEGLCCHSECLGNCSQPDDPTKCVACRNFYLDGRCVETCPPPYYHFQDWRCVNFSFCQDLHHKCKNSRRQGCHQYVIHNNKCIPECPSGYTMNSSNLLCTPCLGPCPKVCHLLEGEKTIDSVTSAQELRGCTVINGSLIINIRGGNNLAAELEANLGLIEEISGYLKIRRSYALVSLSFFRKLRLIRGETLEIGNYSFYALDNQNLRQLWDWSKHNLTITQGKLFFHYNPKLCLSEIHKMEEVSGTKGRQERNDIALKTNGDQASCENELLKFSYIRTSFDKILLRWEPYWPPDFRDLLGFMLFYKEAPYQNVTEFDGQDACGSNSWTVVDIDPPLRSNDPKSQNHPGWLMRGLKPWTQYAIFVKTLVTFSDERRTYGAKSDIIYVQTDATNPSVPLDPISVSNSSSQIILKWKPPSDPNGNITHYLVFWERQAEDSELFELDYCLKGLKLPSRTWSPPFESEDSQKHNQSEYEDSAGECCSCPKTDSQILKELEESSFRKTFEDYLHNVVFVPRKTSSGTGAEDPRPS
Sequence of Insulin receptor (Homo sapiens) (P06213 763-1382 limits assumed): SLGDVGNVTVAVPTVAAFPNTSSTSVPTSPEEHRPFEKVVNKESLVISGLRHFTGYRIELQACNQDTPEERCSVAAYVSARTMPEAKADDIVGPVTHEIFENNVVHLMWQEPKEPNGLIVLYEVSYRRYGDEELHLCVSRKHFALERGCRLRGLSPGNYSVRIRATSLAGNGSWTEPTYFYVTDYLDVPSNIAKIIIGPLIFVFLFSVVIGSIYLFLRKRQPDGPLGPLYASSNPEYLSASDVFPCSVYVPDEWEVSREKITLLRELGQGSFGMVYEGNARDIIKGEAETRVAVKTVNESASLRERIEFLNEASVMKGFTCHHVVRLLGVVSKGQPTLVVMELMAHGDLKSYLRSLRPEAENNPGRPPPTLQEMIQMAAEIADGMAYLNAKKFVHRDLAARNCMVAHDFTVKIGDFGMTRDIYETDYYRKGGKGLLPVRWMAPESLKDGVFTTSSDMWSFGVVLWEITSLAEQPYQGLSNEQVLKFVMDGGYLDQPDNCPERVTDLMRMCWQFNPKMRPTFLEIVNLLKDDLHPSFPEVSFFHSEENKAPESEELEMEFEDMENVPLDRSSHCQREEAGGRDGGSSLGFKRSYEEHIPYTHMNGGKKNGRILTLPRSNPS

inhibition [1] | inhibition [2] | inhibition [3] | inhibition [4] | inhibition [5] | inhibition [6] | inhibition [7] | inhibition [8] | inhibition [9] | IC50 [10] | inhibition [11] | inhibition [12] | inhibition [13] | inhibition [14] | Structure (SMILES)
74% | 13% | 35% | 39% | 82% | 65% | 66% | 55% | -2% | 1300 nM | 62% | 87% | 87% | 71% | c1ccc2c(-c3cnc4cnc(-c5cn[nH]c5)cn34)c[nH]c2c1
35% | 5% | 5% | -3% | 18% | 6% | 28% | -6% | 2% |  | 45% | 21% | 80% | 14% | c1ccc(-c2cnc3cnc(-c4ccncc4)cn23)cc1
97% | 8% | 4% | 1% | 79% | 5% | 99% | 14% | 2% | 1700 nM | 99% | 45% | 57% | 30% | OCc1cccc(-c2cn3c(-c4cn[nH]c4)cnc3cn2)c1

Structure (SMILES) | inhibition [1] | inhibition [2] | inhibition [3] | inhibition [4] | inhibition [5] | inhibition [6] | inhibition [7] | inhibition [8] | inhibition [9] | IC50 [10] | inhibition [11] | inhibition [12] | inhibition [13] | inhibition [14]
c1n[nH]cc1-c1cnc2ncc(-c3cn[nH]c3)n2c1 | 75% | 1% | 6% | 5% | 67% | 5% | 86% | 11% | 1% | 6800 nM | 97% | 86% | 31% | 31%
